From patent US9296759B2, “Amino-oxazine and amino-dihydrothiazine compounds as beta-secretase modulators and methods of use” (AMGEN INC., priority 2011, dated 2016)
pIC50: −log10 of the molar value. Read-outs that look alike come from different tables or passages of the source.

Experiments:
[1] = test system: pigment epithelium of the rat's eye; settings: higher compound dose given for three months; cited from earlier work
[2] = people of the phase I trial; cited from earlier work
[3] = test system: Aβ40 in conditioned medium of cells stably expressing Amyloid Precursor Protein (APP); assay: In vitro BACE cell-based assay (HEK cell assay, Aβ40 sandwich ELISA); settings: Homo sapiens, HEK293; average IC50, Aβ40, 24 h incubation
In short: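 Secreted Aβ40 was quantified by sandwich ELISA (pAb40 capture, biotinylated 6E10 detection, Europium time-resolved fluorescence). IC50 derived from percent inhibition versus concentration.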

[4] = molecular target: BACE 1 (beta secretase enzyme) (Homo sapiens (Human), UniProt P56817); assay: In vitro enzymatic BACE FRET assay; assay type: biochemical; settings: average IC50
Sequence of BACE 1 (beta secretase enzyme) (P56817 46-501): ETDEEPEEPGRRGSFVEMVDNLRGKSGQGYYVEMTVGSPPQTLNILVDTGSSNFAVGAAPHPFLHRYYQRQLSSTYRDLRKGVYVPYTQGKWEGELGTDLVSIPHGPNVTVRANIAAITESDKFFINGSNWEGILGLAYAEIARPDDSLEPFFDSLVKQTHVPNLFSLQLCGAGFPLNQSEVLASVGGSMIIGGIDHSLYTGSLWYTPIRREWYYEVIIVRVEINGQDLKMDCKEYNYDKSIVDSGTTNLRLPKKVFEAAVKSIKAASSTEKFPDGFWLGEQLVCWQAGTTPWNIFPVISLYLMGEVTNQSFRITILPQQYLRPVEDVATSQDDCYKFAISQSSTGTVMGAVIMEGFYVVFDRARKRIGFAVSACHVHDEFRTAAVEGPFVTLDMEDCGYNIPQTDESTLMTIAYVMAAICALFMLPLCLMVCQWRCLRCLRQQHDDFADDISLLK
In short: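 The enzyme was tested in 0.05 M acetate, pH 4.2, with 10% DMSO final and 100 uM genapol. The reaction was started with 50 nM quenched FRET peptide substrate, incubated one hour and stopped with Tris to neutral pH. Cleavage was read as fluorescence ([…]).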

Cathepsin D = Cathepsin D (Homo sapiens (Human), UniProt P07339); assay: In vitro enzymatic Cat D (Cathepsin D) FRET assay; assay type: biochemical; settings: average IC50
Sequence of Cathepsin D (P07339 65-412, species assumed): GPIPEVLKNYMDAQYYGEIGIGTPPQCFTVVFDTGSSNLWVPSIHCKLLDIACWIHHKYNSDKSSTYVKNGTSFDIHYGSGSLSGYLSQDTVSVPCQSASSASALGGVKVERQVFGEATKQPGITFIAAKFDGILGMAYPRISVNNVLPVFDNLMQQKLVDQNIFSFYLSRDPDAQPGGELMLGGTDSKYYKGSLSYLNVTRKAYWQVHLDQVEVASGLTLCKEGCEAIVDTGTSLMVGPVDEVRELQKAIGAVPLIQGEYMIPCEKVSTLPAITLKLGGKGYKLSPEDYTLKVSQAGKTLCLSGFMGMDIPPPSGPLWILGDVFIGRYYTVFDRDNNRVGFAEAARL
In short: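 CHO-expressed recombinant enzyme in 0.05 M citrate pH 3.5, 5 mM CHAPS, 10% DMSO final; reaction started with 20 nM quenched-peptide FRET substrate (cleavage site spanned by fluorophore/quencher), 1 h incubation.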

Abeta 40 = assay: In vivo inhibition of beta-secretase: Abeta 40 reduction in CSF and brain of the rat; settings: 10 mpk, after 4 hrs
From the text: In Vivo Inhibition of Beta-Secretase
Several animal models, including mouse, rat, dog, and monkey, may be used to screen for inhibition of beta-secretase activity in vivo following administration of a test compound sample. Animals used in this invention can be wild type, transgenic, or gene knockout animals. For example, the Tg2576 mouse model, prepared and conducted as described in Hsiao et al., 1996, Science 274, 99-102, and other non-transgenic or gene knockout animals are useful to analyze in vivo inhibition of Amyloid beta peptide (Abeta) production in the presence of inhibitory test compounds. Generally, 2 to 18 month old Tg2576 mice, gene knockout mice or non-transgenic animals are administered test compounds formulated in vehicles, such as cyclodextran, phosphate buffers, hydroxypropyl methylcellulose or other suitable vehicles. One to twenty-four hours following the administration of compound, animals are sacrificed, and brains as well as cerebrospinal fluid (CSF) and plasma are removed for analysis of A-beta levels and drug or test compound concentrations (Dovey et al., 2001, Journal of Neurochemistry, 76, 173-181) Beginning at time 0, animals are administered by oral gavage, or other means of delivery such as intravenous injection, an inhibitory test compound of up to 100 mg/kg in a standard, conventional formulation, such as 2% hydroxypropyl methylcellulose, 1% Tween80. A separate group of animals receive 2% hydroxypropyl methylcellulose, 1% Tween80 alone, containing no test compound, and serve as a vehicle-control group. At the end of the test period, animals are sacrificed and brain tissues, plasma or cerebrospinal fluid are collected. Brains are either homogenized in 10 volumes (w/v) of 0.2% diethylamine (DEA) in 50 mM NaCl (Best et al., 2005, Journal of Pharmacology and Experimental Therapeutics, 313, 902-908), or in 10 volumes of 0.5% TritonX-100 in Tris-buffered saline (pH at about 7.6). Homogenates are centrifuged at 355,000 g, 4° C. for 30 minutes. CSF or brain supernatants are then analyzed for the presence of A-beta peptide by specific sandwich ELISA assays based on ECL (Electrochemiluminescence) technology. For example, rat Abeta40 is measured using biotinylated-4G8 (Signet) as a capture antibody and Fab40 (an in-house antibody specific to the C-terminal of Abeta40) as a detection antibody. For example, 4 hours after administration of 30 mg/kg oral dose of the test compound in 2% hydroxypropyl methylcellulose, 1% Tween80 (pH2.2) to 200 g male Sprague Dawley rats, amyloid beta peptide levels are measured for reduction by X % and Y % in cerebrospinal fluid and brain, respectively, when compared to the levels measured in the vehicle-treated rats.
• Oral: 2% HPMC, 1% Tween80, pH 2.2 • IV: 5% EtOH, 45% Propylene glycol in 5% Dextrose
The compounds of the invention may be shown to reduce the formation and/or deposition of amyloid beta peptide in the cerebrospinal fluid (CSF) as well as in the brain of a mouse or rat at either 3 mpk, 10 mpk or 30 mpk (mpk=mg compound per kg weight of the animal) dosing concentrations after 4 hrs.

[5] = Abeta 40, rat CSF, read-out: % reduction of rat CSF levels at 10 pmk
[6] = Abeta 40, rat brain, read-out: % reduction of rat brain levels at 10 mpk

pIC50 [3]	pIC50 [4]	pIC50 (Cathepsin D)	SMILES	retinal toxicity finding [1]	eye assessments [2]	inhibition in vivo at 10 mg/kg (Abeta 40; [5]) [%]	inhibition in vivo at 10 mg/kg (Abeta 40; [6]) [%]
–	–	–	C[C@@]1(c2cc(-c3cncnc3)c(F)cc2F)CCSC(N)=N1 [LY 2811376]	ravaged the pigment epithelium of the rat's eye	did not show any abnormalities	–	–
9.22	8.80	3.40	NC1=N[C@@]2(CCO1)c1cc(NC(=O)c3ccc(F)cn3)ccc1Oc1c2cc(-c2cncc(F)c2)nc1F [Example 89, N-((5S)-2′-amino-1-fluoro-3-(5-fluoro-3-pyridinyl)-5′,6′-dihydrospiro[chromeno[2,3-c]pyridine-5,4′-[1,3]oxazin]-7-yl)-5-fluoro-2-pyridinecarboxamide]	–	–	69	46
8.85	8.80	3.80	COc1cnc(C(=O)Nc2ccc3c(c2)[C@@]2(CCSC(N)=N2)c2cc(C4=CCOCC4)nc(F)c2O3)cn1 [Example 67, N-((5S)-2′-amino-3-(3,6-dihydro-2H-pyran-4-yl)-1-fluoro-5′,6′-dihydrospiro[chromeno[2,3-c]pyridine-5,4′-[1,3]thiazin]-7-yl)-5-methoxy-2-pyrazinecarboxamide]	–	–	66	58
10.29	9.05	3.40	COc1cnc(C(=O)Nc2ccc3c(c2)[C@@]2(CCOC(N)=N2)c2cc(C4=CCOCC4)nc(F)c2O3)cn1 [Example 65, N-((5S)-2′-amino-3-(3,6-dihydro-2H-pyran-4-yl)-1-fluoro-5′,6′-dihydrospiro[chromeno[2,3-c]pyridine-5,4′-[1,3]oxazin]-7-yl)-5-methoxy-2-pyrazinecarboxamide]	–	–	83	71
9.05	8.74	3.40	COc1cnc(C(=O)Nc2ccc3c(c2)[C@@]2(CCOC(N)=N2)c2cc(-c4ccnc(F)c4)nc(F)c2O3)cn1 [Example 92, N-((5S)-2′-amino-1-fluoro-3-(2-fluoro-4-pyridinyl)-5′,6′-dihydrospiro[chromeno[2,3-c]pyridine-5,4′-[1,3]oxazin]-7-yl)-5-methoxy-2-pyrazinecarboxamide]	–	–	79	70
9.00	8.74	3.75	COc1cnc(C(=O)Nc2ccc3c(c2)[C@@]2(CCSC(N)=N2)c2cc(C4=CCCOC4)nc(F)c2O3)cn1 [Example 66, N-((5S)-2′-amino-3-(5,6-dihydro-2H-pyran-3-yl)-1-fluoro-5′,6′-dihydrospiro[chromeno[2,3-c]pyridine-5,4′-[1,3]thiazin]-7-yl)-5-methoxy-2-pyrazinecarboxamide]	–	–	77	66
8.49	7.90	3.36	NC1=N[C@@]2(CCO1)c1cc(NC(=O)c3ccc(Cl)cn3)ccc1Oc1ncc(C3CC3)cc12 [Example 73, N-((5S)-2′-amino-3-cyclopropyl-5′,6′-dihydrospiro[chromeno[2,3-b]pyridine-5,4′-[1,3]oxazin]-7-yl)-5-chloro-2-pyridinecarboxamide]	–	–	38	7
